Test results reported in patent US20240115557A1, “INHIBITORS OF RNA-GUIDED NUCLEASES AND USES THEREOF” (The Brigham and Women's Hospital, Inc., priority 2022, published 2024).

Target: T1, SaCas9 (Staphylococcus aureus, UniProt J7RUA5)
T1 sequence (J7RUA5 1-1053): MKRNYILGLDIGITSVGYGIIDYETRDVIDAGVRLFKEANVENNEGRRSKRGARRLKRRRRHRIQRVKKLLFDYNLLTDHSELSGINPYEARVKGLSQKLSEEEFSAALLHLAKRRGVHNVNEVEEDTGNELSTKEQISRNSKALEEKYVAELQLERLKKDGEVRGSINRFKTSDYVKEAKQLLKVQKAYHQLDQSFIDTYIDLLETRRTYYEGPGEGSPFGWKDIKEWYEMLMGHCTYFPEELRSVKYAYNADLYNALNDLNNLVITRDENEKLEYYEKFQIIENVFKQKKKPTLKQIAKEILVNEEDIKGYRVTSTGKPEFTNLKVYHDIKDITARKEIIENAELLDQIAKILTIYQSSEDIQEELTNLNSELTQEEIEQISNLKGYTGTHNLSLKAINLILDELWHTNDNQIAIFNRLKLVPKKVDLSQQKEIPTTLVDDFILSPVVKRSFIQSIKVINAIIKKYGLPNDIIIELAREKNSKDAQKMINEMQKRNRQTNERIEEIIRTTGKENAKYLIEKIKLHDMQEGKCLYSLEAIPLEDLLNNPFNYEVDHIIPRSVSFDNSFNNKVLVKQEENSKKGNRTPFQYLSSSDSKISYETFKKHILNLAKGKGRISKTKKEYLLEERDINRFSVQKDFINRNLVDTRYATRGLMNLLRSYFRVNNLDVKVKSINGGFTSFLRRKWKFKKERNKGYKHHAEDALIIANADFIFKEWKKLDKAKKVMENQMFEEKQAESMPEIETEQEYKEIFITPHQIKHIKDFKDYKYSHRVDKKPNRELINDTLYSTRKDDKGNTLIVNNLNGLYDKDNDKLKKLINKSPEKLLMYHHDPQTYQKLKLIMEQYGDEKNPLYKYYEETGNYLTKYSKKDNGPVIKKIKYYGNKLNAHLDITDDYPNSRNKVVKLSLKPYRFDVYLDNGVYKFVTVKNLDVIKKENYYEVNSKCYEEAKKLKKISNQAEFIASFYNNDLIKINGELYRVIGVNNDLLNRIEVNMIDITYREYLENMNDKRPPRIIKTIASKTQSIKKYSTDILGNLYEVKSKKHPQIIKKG
Assay: Strand displacement assay, SaCas9 primary screen
Format: biochemical
Settings: for Auto Zscore Rep 1 / Auto Zscore Rep 2 / Normalized Zscore Rep 1 / Normalized Zscore Rep 2: SaCas9 primary screen; for Auto Zscore Rep 1 / Normalized Zscore Rep 1: replicate 1; for Auto Zscore Rep 2 / Normalized Zscore Rep 2: replicate 2; for Normalized Zscore Rep 1 / Normalized Zscore Rep 2: weaker potential hits; for 3 sigma Hit: flag 1 = hit at 3 sigma; for 5 sigma Hit: flag 1 = hit at 5 sigma
Procedure, shortened: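 Cas9 RNP (1:1.2 protein:gRNA) pre-formed in 20 mM Tris-HCl pH 7.5, 100 mM KCl, 5 mM MgCl2, used at 10 nM (2× stock) with Alexa-Fluor 647 substrate/quencher at 1 nM/5 nM (2× stock). Reaction ran 2.5 h at 37°C; strand displacement read as fluorescence. Hits called by Z-score: 3–5σ weak, >5σ strong.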

SMILES | Auto Zscore Rep 1 | Auto Zscore Rep 2 | Normalized Zscore Rep 1 | Normalized Zscore Rep 2 | 3 sigma Hit | 5 sigma Hit
CN(C)S(=O)(=O)Nc1ccc(N2CCCC(CN3CCCC3)C2)c(C(=O)O)c1 (centres unmarked) [Compound F294-0983] | −0.3877 | −0.5875 | 0.2894 | 0.2577 | 1 | 1
Cc1nc2ccccc2n1Cc1nnc2n1N=C(N)CS2 [Compound D727-0339] | −1.123 | −1.939 | 0.1478 | 0.2051 | 1 | –
Nc1c(C(=O)NCC2CCCO2)sc(=S)n1-c1ccc(Cl)cc1 (centres unmarked) [Compound F128-0076] | −0.6285 | −1.451 | 0.3168 | 0.2064 | 1 | 1
CN(C)S(=O)(=O)Nc1ccc(N2CCC(CCN3CCOCC3)CC2)c(C(=O)O)c1 [Compound F294-0900] | −2.121 | 0.2518 | 0.2307 | 0.229 | 1 | 1
Nc1c(C(=O)N2CCCCC2)sc(=S)n1Cc1ccccc1 [Compound F128-0042] | −0.3436 | 0.3038 | 0.2801 | 0.2612 | 1 | 1
Brc1ccc(OCc2nn3c(-c4ccccn4)nnc3s2)cc1 [Compound D727-0522] | 1.021 | 0.5297 | 0.3471 | 0.3776 | 1 | 1
CN(C)S(=O)(=O)Nc1ccc(N2CCC(C(N)=O)(N3CCCCC3)CC2)c(C(=O)O)c1 [Compound F294-0183] | −1.66 | −0.5827 | 0.1624 | 0.2442 | 1 | –
CC(C)NC(=O)CN1CCN(c2ccc(C(=O)O)cc2NC(=O)c2ccccc2Cl)CC1 [Compound F086-0028] | −0.07719 | 0.5847 | 0.2467 | 0.2295 | 1 | 1
CCN(Cc1ccccc1)c1ccc(NS(=O)(=O)c2ccc(OC)cc2)cc1C(=O)O [Compound F294-0003] | 0.9297 | −1.427 | 0.2547 | 0.2729 | 1 | 1
COCCCNC(=O)CN1CCN(c2ccc(C(=O)O)cc2NC(=O)c2ccccc2Cl)CC1 [Compound F086-0033] | −0.0657 | −0.1907 | 0.1937 | 0.2246 | 1 | 1
NC(=O)c1sc(=S)n2c1[nH]c(=O)c1ccc(Cl)cc12 [Compound F083-0067] | −0.5214 | 0.84 | 0.2245 | 0.2068 | 1 | 1
Cc1ccccc1OCc1nn2c(C(C)(C)C)nnc2s1 [Compound D727-0351] | −0.02144 | −0.3042 | 0.2896 | 0.3227 | 1 | 1
CS(=O)(=O)Nc1cnc(N2CCC(C(N)=O)(N3CCCCC3)CC2)c(C(=O)O)c1 [Compound F293-0183] | 1.533 | −0.4148 | 0.2879 | 0.3283 | 1 | 1
CCCN1CCN(c2ccc(C(=O)O)cc2NC(=O)c2ccccc2Cl)CC1 [Compound F086-0004] | −1.483 | 1.076 | 0.2725 | 0.2108 | 1 | 1
Nc1c(C(=O)N2CCCC2)sc(=S)n1Cc1ccccc1 [Compound F128-0041] | 1.188 | −1.115 | 0.3576 | 0.3845 | 1 | 1
CS(=O)(=O)Nc1cnc(N2CCC(CCN3CCOCC3)CC2)c(C(=O)O)c1 [Compound F293-0898] | 0.3628 | 0.2374 | 0.3858 | 0.277 | 1 | 1
c1ccc(Cc2nn3c(-c4cccnc4)nnc3s2)cc1 [Compound D727-0066] | 0.2456 | 1.309 | 0.1917 | 0.2236 | 1 | 1
CN(C)S(=O)(=O)Nc1cnc(N2CCC(CCN3CCCCC3)CC2)c(C(=O)O)c1 [Compound F293-0962] | −1.575 | −1.36 | 0.2533 | 0.277 | 1 | 1
O=C(O)c1ccc(N2CCN(c3ccccn3)CC2)c(NC(=O)c2ccc(Br)cc2)c1 [Compound F086-0619] | 1.213 | 0.1224 | 0.2335 | 0.1451 | 1 | 1
NC(=O)c1c(NC(=O)COCc2cc(-c3ccc4c(c3)OCO4)on2)sc2c1CCCC2 [Compound E613-0091] | −0.4678 | −1.998 | 0.1515 | 0.3604 | 1 | –
Cc1ccccc1OCc1nn2c(C(C)C)nnc2s1 [Compound D727-0350] | −0.2032 | 0.9814 | 0.2025 | 0.2065 | 1 | 1
O=C(O)c1cc(NS(=O)(=O)c2cc(F)ccc2F)cnc1N1CCC(N2CCCCC2)CC1 [Compound F293-0616] | −0.1879 | −0.1846 | 0.1887 | 0.1788 | 1 | –
NS(=O)(=O)c1ccc(CCNC(=O)C2=Cc3sc4c(c3CS2)CCCC4)cc1 [Compound E722-2588] | 0.2247 | −0.3407 | 0.2746 | 0.2871 | 1 | 1
Fc1ccc(OCc2nn3c(-c4ccccn4)nnc3s2)cc1 [Compound D727-0525] | 0.9393 | 1.066 | 0.3566 | 0.3426 | 1 | 1
